Measurements: the NIST ThermoML archive (doi:10.1016/j.jct.2004.06.008)

Test: molar heat capacity at constant pressure
Conditions: 101.33 kPa, Crystal, Vacuum adiabatic calorimetry

[Cu] [copper]
Conditions	molar heat capacity at constant pressure [J/K/mol]
6.56 K	0.0232
7.16 K	0.0255
7.85 K	0.0323
8.64 K	0.04
9.55 K	0.0534
10.51 K	0.0663
11.42 K	0.0839
12.43 K	0.1121
13.56 K	0.137
14.81 K	0.1926
16.17 K	0.2314
17.69 K	0.304
19.34 K	0.4106
20.19 K	0.4727
21.13 K	0.5555
21.94 K	0.6242
23.08 K	0.7448
23.76 K	0.8181
25.79 K	1.058
28.01 K	1.37
30.46 K	1.761
33.17 K	2.259
36.05 K	2.853
37.57 K	3.173
39.01 K	3.497
40.74 K	3.898
44.1 K	4.708
45.89 K	5.146
47.52 K	5.549
49.38 K	6.025
52.99 K	6.933
54.47 K	7.281
56.65 K	7.837
56.87 K	7.882
59.76 K	8.582
62.64 K	9.272
66.47 K	10.14
71.22 K	11.16
75.97 K	12.13
80.79 K	13.04
85.65 K	13.89
90.55 K	14.68
95.49 K	15.41
100.46 K	16.08
105.45 K	16.71
110.46 K	17.28
115.49 K	17.81
120.54 K	18.3
125.61 K	18.75
130.68 K	19.16
134.74 K	19.47
135.77 K	19.54
139.84 K	19.82
140.87 K	19.89
144.94 K	20.16
150.05 K	20.46
155.17 K	20.75
160.3 K	21.02
165.43 K	21.27
170.57 K	21.5
175.7 K	21.72
180.85 K	21.92
186 K	22.11
191.15 K	22.28
193.33 K	22.35
196.3 K	22.45
198.48 K	22.51
201.46 K	22.6
203.64 K	22.66
206.62 K	22.74
208.8 K	22.79
213.96 K	22.93
219.13 K	23.06
224.29 K	23.19
229.45 K	23.31
232.56 K	23.38
234.62 K	23.41
237.73 K	23.49
239.79 K	23.53
242.89 K	23.59
248.06 K	23.68
253.24 K	23.77
258.41 K	23.86
263.59 K	23.95
268.77 K	24.02
273.95 K	24.09
279.13 K	24.16
284.31 K	24.23
289.49 K	24.31
294.67 K	24.38
297.38 K	24.41
299.85 K	24.44
302.55 K	24.49
307.73 K	24.55
312.92 K	24.61
318.1 K	24.67
323.28 K	24.73
325.89 K	24.75
328.47 K	24.78
331.06 K	24.8
336.25 K	24.85
341.44 K	24.91
346.62 K	24.95
351.8 K	24.99
356.99 K	25.03
363.06 K	25.07
368.04 K	25.11
373.02 K	25.17
378 K	25.25
382.98 K	25.25
387.96 K	25.3
392.94 K	25.35
397.62 K	25.41
